The results in this text go back to patent publication US20140051679A1, “KINASE INHIBITORS AND METHOD OF TREATING CANCER WITH SAME” (UNIVERISTY HEALTH NETWORKS, priority 2011, published 2014).

The structures appear in SMILES notation.

Common to all, as to type: biochemical
One test deals with T1, human PLK4 (Homo sapiens, UniProt O00444).
T1 construct: amino terminal GST fusion of residues 1-391 of human PLK4; made in house; host or cells: E. coli
T1 sequence (O00444 1-391): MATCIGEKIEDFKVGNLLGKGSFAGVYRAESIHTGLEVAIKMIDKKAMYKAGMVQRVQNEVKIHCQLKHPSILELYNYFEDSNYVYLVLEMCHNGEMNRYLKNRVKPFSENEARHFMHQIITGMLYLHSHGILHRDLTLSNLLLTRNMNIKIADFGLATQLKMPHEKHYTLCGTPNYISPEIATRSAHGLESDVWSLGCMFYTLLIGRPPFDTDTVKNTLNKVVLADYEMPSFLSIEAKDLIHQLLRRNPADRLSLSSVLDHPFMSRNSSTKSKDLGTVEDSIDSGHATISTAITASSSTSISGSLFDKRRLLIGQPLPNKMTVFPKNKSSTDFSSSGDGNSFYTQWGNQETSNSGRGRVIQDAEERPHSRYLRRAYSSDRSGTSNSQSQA
In words: PLK4 inhibition assay (indirect ELISA). Particulars: GST-PLK4 4 nM, 15 μM ATP; read-out: IC50 Ranges PLK4. Here is the method: Active PLK4 was purified from an E. coli expression system as an amino terminal GST fusion of residues 1-391 of human PLK4. The protein was purified from clarified cell extracts after induction at 15° C. overnight using glutathione sepharose, gel permeation chromatography, and ion exchange (Resource Q). The resulting protein was dephosphorylated with lambda phosphatase (NEB cat#P0753), and resolved from the phosphatase using gluthione sepharose. The dephosphorylated GST-PLK4 was stored in aliquots at −80° C. until use.
PLK4 activity was measured using an indirect ELISA detection system. GST-PLK4 (4 nM) was incubated in the presence of 15 μM ATP (Sigma cat#A7699), 50 mM HEPES-Na^2+ pH 7.5, 10 mM MgCl2, 0.01% Brij 35 (Sigma cat#03-3170), in a 96 well microtitre plate pre-coated with MBP (Millipore cat#30-011). The reaction was allowed to proceed for 30 minutes, followed by 5 washes of the plate with Wash Buffer (phosphate buffered saline supplemented with 0.2% Tween 20), and incubation for 30 minutes with a 1:3000 dilution of primary antibody (Cell Signaling cat#9381). The plate was washed 5 times with Wash Buffer, incubated for 30 minutes in the presence of secondary antibody coupled to horse radish peroxidase (BioRad cat#1721019, 1:3000 concentration), washed an additional 5 times with Wash Buffer, and incubated in the presence of TMB substrate (Sigma cat#T0440). The colourimetric reaction was allowed to continue for 5 minutes, followed by addition of stop solution (0.5 N sulphuric acid), and quantified by detection at 450 nm with either a monochromatic or filter based plate reader (Molecular Devices M5 or Beckman DTX880, respectively).
Compound inhibition was determined at either a fixed concentration (10 μM) or at a variable inhibitor concentration (typically 0.5 μM to 0.001 μM in a 10 point dose response titration). Compounds were pre-incubated in the presence of enzyme for 15 minutes prior to addition of ATP and the activity remaining quantified using the above described activity assay. The % Inhibition of a compound was determined using the following formula; % Inhibition=100×(1-(experimental value−background value)/(high activity control−background value)). The IC50 value was determined using a non-linear 4 point logistic curve fit (XLfit4, IDBS) with the formula; (A+(B/(1+((x/C)̂D)))), where A=background value, B=range, C=inflection point, D=curve fit parameter.
On the technique in general: ELISA stands for enzyme-linked immunosorbent assay.

A further test concerns the target T2, Aurora B (Homo sapiens, UniProt Q96GD4).
T2 construct: purchased Invitrogen PV3970
The experiment in a line: Aurora B inhibition assay (Z-Lyte). The settings on record: 28 nM Aurora B, 128 μM ATP; read-out: IC50 Ranges Aurora B. The procedure: Aurora B inhibition was determined using the Z-Lyte assay kit from Invitrogen. The assay was performed using the recommended manufacturer's instructions with 128 μM ATP and 28 nM Aurora B (Invitrogen cat #PV3970). The % inhibition values were determined according to the manufacturer's directions and IC50 values were obtained using a non-linear 4 point logistic curve fit (XLfit4, IDBS)

The target in a further test is T3, human TTK (Homo sapiens, UniProt P33981).
T3 construct: amino terminal GST fusion of full length human TTK; purchased Invitrogen
T3 sequence (P33981 1-857): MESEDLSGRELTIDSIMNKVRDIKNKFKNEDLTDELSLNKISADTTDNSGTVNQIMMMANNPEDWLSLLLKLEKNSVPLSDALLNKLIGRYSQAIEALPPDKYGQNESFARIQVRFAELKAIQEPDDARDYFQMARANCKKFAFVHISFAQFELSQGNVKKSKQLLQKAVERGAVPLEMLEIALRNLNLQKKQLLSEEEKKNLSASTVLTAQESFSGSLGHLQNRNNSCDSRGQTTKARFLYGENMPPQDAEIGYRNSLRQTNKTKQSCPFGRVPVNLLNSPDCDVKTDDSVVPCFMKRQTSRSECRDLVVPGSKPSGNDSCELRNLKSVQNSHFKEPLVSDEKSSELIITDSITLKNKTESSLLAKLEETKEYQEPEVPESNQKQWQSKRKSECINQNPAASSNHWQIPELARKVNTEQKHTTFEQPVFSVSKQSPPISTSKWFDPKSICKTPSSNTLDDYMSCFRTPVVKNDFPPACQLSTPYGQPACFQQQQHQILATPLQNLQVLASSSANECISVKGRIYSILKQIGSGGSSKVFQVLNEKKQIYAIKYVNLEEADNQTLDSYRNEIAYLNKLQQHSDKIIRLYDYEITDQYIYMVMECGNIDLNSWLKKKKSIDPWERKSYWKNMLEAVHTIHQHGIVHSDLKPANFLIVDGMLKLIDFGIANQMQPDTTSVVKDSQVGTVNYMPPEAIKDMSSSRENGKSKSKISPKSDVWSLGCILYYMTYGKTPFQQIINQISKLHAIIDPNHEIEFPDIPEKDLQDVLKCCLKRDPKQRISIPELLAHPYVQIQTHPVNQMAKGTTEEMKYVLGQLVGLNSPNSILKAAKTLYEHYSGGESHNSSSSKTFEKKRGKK
In words: TTK inhibition assay (indirect ELISA). The settings on record: GST-TTK 0.68 nM, 16 μM ATP; read-out: IC50 Ranges TTK.

T2 sequence (Q96GD4 whole entry): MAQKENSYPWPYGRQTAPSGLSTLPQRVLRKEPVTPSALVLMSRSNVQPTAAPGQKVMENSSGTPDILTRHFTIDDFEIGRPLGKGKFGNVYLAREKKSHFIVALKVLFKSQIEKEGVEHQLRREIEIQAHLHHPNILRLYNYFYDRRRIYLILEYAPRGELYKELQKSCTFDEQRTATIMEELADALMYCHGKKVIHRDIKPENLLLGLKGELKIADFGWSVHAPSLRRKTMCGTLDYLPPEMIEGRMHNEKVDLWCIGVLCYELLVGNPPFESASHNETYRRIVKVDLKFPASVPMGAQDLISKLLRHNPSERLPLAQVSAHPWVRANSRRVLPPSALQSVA
Procedure for human TTK: Active TTK was purchased from Invitrogen as an amino terminal GST fusion of full length human TTK.
TTK activity was measured using an indirect ELISA detection system. GST-TTK (0.68 nM) was incubated in the presence of 16 μM ATP (Sigma cat#A7699), 50 mM Hepes pH 7.2, 1 mM EGTA, 10 mM MgCl2, and 0.1% Pluronic in a 96 well microtitre plate pre-coated with amino terminal 6 histidine, sumo tagged TTK (amino acid residues 1-275). The reaction was allowed to proceed for 30 minutes, followed by 5 washes of the plate with Wash Buffer (phosphate buffered saline supplemented with 0.2% Tween 20), and incubation for 30 minutes with a 1:3000 dilution of primary antibody (Cell Signaling cat#9381). The plate was washed 5 times with Wash Buffer, incubated for 30 minutes in the presence of secondary antibody coupled to horse radish peroxidase (BioRad cat#1721019, 1:3000 concentration), washed an additional 5 times with Wash Buffer, and incubated in the presence of TMB substrate (Sigma cat#T0440). The colourimetric reaction was allowed to continue for 5 minutes, followed by addition of stop solution (0.5 N sulphuric acid), and quantified by detection at 450 nm with either a monochromatic or filter based plate reader (Molecular Devices M5 or Beckman DTX880, respectively).
Compounds were pre-incubated in the presence of enzyme for 5 minutes prior to addition of ATP and the activity remaining quantified using the above described activity assay. The % Inhibition of a compound was determined using the following formula; % Inhibition=100×(1−(experimental value−background value)/(high activity control−background value)). The IC50 value was determined using a non-linear 4 point logistic curve fit (XLfit4, IDBS) with the formula; (A+(B/(1+((x/C)̂D)))), where A=background value, B=range, C=inflection point, D=curve fit parameter.

As to `CN1CCC(Oc2ccc(-c3n[nH]c4ccc(NC(=O)C(c5ccsc5)N5CCCC5)cc34)cc2)CC1` (centres unmarked) [Example A7, N-(3-(4-((1-methylpiperidin-4-yl)oxy)phenyl)-1H-indazol-5-yl)-2-(pyrrolidin-1-yl)-2-(thiophen-3-yl)acetamide], the IC50 at human PLK4 and at Aurora B was no more than 5 µM in each case.
With `O=C(Nc1ccc2[nH]nc(-c3ccc(N4CCC(O)CC4)cc3)c2c1)C(c1ccsc1)N1CCCC1` (centres unmarked) [Example A9, N-(3-(4-(4-hydroxypiperidin-1-yl)phenyl)-1H-indazol-5-yl)-2-(pyrrolidin-1-yl)-2-(thiophen-3-yl)acetamide], the IC50 on human PLK4 and on Aurora B was no more than 5 µM in each case.
Consider `CN1CCC(Oc2ccc(-c3n[nH]c4ccc(C(=O)NC(c5ccccc5)C5CC5)cc34)cc2)CC1` (centres unmarked) [Example A24, N-(cyclopropyl(phenyl)methyl)-3-(4-((1-methylpiperidin-4-yl)oxy)phenyl)-1H-indazole-5-carboxamide], for which the IC50 on human PLK4 and on Aurora B was no more than 5 µM each time.
For the compound `CN1CCC(Oc2ccc(-c3n[nH]c4ccc(C(=O)N[C@H](c5ccccc5)C5CC5)cc34)cc2)CC1` [Example A42, (S)—N-(cyclopropyl(phenyl)methyl)-3-(4-((1-methylpiperidin-4-yl)oxy)phenyl)-1H-indazole-5-carboxamide], the IC50 on human PLK4 and on Aurora B was no more than 5 µM throughout.
Regarding `CCN(C(=O)Nc1ccc2[nH]nc(-c3ccc(N4CCOCC4)cc3)c2c1)c1ccccc1` [Example A72, 1-ethyl-3-(3-(4-morpholinophenyl)-1H-indazol-5-yl)-1-phenylurea], the half-inhibitory concentration (IC50) on human PLK4 and on human TTK was no more than 5 µM throughout.
For the compound `CN1CCN(c2ccc(-c3n[nH]c4ccc(NC(=O)C(c5ccsc5)N5CCCC5)cc34)cc2)C(=O)C1` (centres unmarked) [Example A94, N-(3-(4-(4-Methyl-2-oxopiperazin-1-yl)phenyl)-1H-indazol-5-yl)-2-(pyrrolidin-1-yl)-2-(thiophen-3-yl)acetamide], the IC50 on human PLK4 and on human TTK was no more than 5 µM in each case.
As to `O=C(NC(c1ccsc1)C1CC1)c1ccc2[nH]nc(-c3ccc(N4CCC(O)CC4)cc3)c2c1` (centres unmarked) [Example A101, N-(cyclopropyl(thiophen-3-yl)methyl)-3-(4-(4-hydroxypiperidin-1-yl)phenyl)-1H-indazole-5-carboxamide], the 50% inhibitory concentration (IC50) on human PLK4 and on Aurora B was no more than 5 µM throughout.
Consider `CN(C)CC(=O)N1CCC(Oc2ccc(-c3n[nH]c4ccc(C(=O)NC(c5ccccc5)C5CC5)cc34)cc2)CC1` (centres unmarked) [Example A130, N-(cyclopropyl(phenyl)methyl)-3-(4-((1-(2-(dimethylamino)acetyl)piperidin-4-yl)oxy)phenyl)-1H-indazole-5-carboxamide], for which the concentration for half-maximal inhibition (IC50) at human PLK4 and on Aurora B was no more than 5 µM in each case.
As for `CC[C@@H](NC(=O)c1ccc2[nH]nc(-c3ccc(OC4CCN(C)CC4)cc3)c2c1)c1ccccc1Cl` [Example A131, (R)—N-(1-(2-chlorophenyl)propyl)-3-(4-((1-methylpiperidin-4-yl)oxy)phenyl)-1H-indazole-5-carboxamide], the concentration for half-maximal inhibition (IC50) at human PLK4 and on Aurora B was no more than 5 µM in each case.
As for `CN1CCC(Oc2ccc(-c3n[nH]c4ccc(NC(=O)C(c5ccccn5)C5CCCC5)cc34)cc2)CC1` (centres unmarked) [Example A179, 2-cyclopentyl-N-(3-(4-((1-methylpiperidin-4-yl)oxy)phenyl)-1H-indazol-5-yl)-2-(pyridin-2-yl)acetamide], the IC50 at human PLK4 and at Aurora B was no more than 5 µM throughout.
As to `COc1cc(-c2n[nH]c3ccc(C(=O)NC(c4ccccn4)C4CC4)cc23)ccc1OC1CCN(C=O)CC1` (centres unmarked) [Example A206, N-(cyclopropyl(pyridin-2-yl)methyl)-3-(4-((1-formylpiperidin-4-yl)oxy)-3-methoxyphenyl)-1H-indazole-5-carboxamide], the IC50 at human PLK4, at human TTK and at Aurora B was no more than 5 µM each time.
Take `CN1CCC(Oc2ccc(-c3n[nH]c4ccc(C(=O)NCC(c5ccccc5)C5CCCC5)cc34)cc2)CC1` (centres unmarked) [Example A207, N-(2-cyclopentyl-2-phenylethyl)-3-(4-((1-methylpiperidin-4-yl)oxy)phenyl)-1H-indazole-5-carboxamide]: the half-inhibitory concentration (IC50) at human PLK4, on human TTK and at Aurora B was no more than 5 µM throughout.
Regarding `CN1CCC(Oc2ccc(-c3n[nH]c4ccc(C(=O)NC(c5ccccn5)C5CCCC5)cc34)cc2)CC1` (centres unmarked) [Example A208, N-(cyclopentyl(pyridin-2-yl)methyl)-3-(4-((1-methylpiperidin-4-yl)oxy)phenyl)-1H-indazole-5-carboxamide], the concentration for half-maximal inhibition (IC50) on human PLK4 and on Aurora B was no more than 5 µM in each case.
On to `O=C(NC(c1ccccn1)C1CC1)c1ccc2[nH]nc(-c3ccc(OC4CN(C5COC5)C4)cc3)c2c1` (centres unmarked) [Example A209, N-(cyclopropyl(pyridin-2-yl)methyl)-3-(4-((1-(oxetan-3-yl)azetidin-3-yl)oxy)phenyl)-1H-indazole-5-carboxamide], for which the IC50 at human PLK4, at human TTK and on Aurora B was no more than 5 µM in each case.
With `CN1CCC(Oc2ccc(-c3n[nH]c4ccc(C(=O)NC(c5ccccn5)C5CCC5)cc34)cc2)CC1` (centres unmarked) [Example A210], the IC50 at human PLK4, on human TTK and on Aurora B was no more than 5 µM each time.
Consider `O=C(N[C@@H](c1ncccc1Cl)C1CC1)c1ccc2[nH]nc(-c3ccc(OC4CCN(C5COC5)CC4)cc3)c2c1` [Example A215, (R)—N-((3-chloropyridin-2-yl)(cyclopropyl)methyl)-3-(4-((1-(oxetan-3-yl)piperidin-4-yl)oxy)phenyl)-1H-indazole-5-carboxamide], for which the concentration for half-maximal inhibition (IC50) on human PLK4 and on human TTK was no more than 5 µM in each case.
Consider `O=C(N[C@H](c1ncccc1Cl)C1CC1)c1ccc2[nH]nc(-c3ccc(OC4CCN(C5COC5)CC4)cc3)c2c1` [Example A216, (S)—N-((3-chloropyridin-2-yl)(cyclopropyl)methyl)-3-(4-((1-(oxetan-3-yl)piperidin-4-yl)oxy)phenyl)-1H-indazole-5-carboxamide], for which the IC50 on human PLK4 and on human TTK was no more than 5 µM in each case.

As usually defined, the IC50 is the concentration that inhibits the measured activity by half.
